Test results published in patent US11642362B2, “Methods of inhibiting cell proliferation and METTL8 activity” (NATIONAL UNIVERSITY OF SINGAPORE, priority 2017, dated 2023).

Experiments:
pS/TQ motif on Mettl8 = assay: Flag IP and pS/TQ immunoblot of Flag-Mettl8 in HCT116 stable cells; format: cell-based, human
From the text: Since both ATM and p53 are tumor suppressors in response to DNA damage, inventors further explored the function of Mettl8 in DNA damage. […] Equal amount of lysates were subject to Flag immunoprecipitation (“IP”) with M-2 beads and washed extensively before being resolved on SDS-PAGE and followed by immunoblotting with an phosphorylation-specific antibody against pS/TQ motif (Cell signaling) and a Flag antibodu. The lysates were immunoblotted by anti-Flag, Actin, ATM pS1981, Chk2 pT68 and p53 p515 antibodies.
In this experiment, equal amount of lysate was immunopurified with M2 beads and probed for pS/TQ antibody, the lysate was checked for antibodies indicated in FIG. 7C.
Equal amounts of lysate were immunopurified with M2 beads and probed for pS/TQ antibody, the lysate was checked for antibodies indicated.

ATM, KAP1, Chk2, p53 = assay: ATM inhibitor pre-treatment of Mettl8 mutant or knockout cells before irradiation (immunoblot); format: cell-based; conditions: Mettl8 mutant or knockout cells pre-treated with ATM inhibitor before irradiation
[1] = system: HCT116 wildtype and Mettl8 knockout cells; assay: Cisplatin sensitivity MTS assay; format: cell-based, human; conditions: Mettl8 knockout versus wildtype HCT116 cells
Procedure: (§1) To further study the relationship between cisplatin and Mettl8, MTS and colony survival assays were performed. In the MTS assay, HCT116 wildtype and Mettl8 knockout cells were seed in 96 well at 1000 cell/well density and treated with different dose of cisplatin. In the colony survival assay, 500 cells per well of HCT116 control and Mettl8 knockout cells were seeded into 6-well plates in triplicate and subjected to different dosage of cisplatin treatment for 2 h.

Mettl8 protein = Mettl8 protein level after cisplatin treatment (SDS-PAGE, immunoblotting); format: cell-based, human; conditions: 293T, HCT116 and HepG2 cells; cisplatin 0, 10, 30, 60, 100, 150 μM for 24 h
Procedure: To further study modulation of Mettl8 protein, 293T, HCT116, and HepG2 cells were treated with different dosage of cisplatin (0, 10, 30, 60, 100, and 150 μM) for 24 h before cell lysates were collected and subjected to SDS-PAGE followed by immunoblotting with Mettl8 and Hsp90 antibodies.

[2] = system: HCT116 control and Mettl8 knockout cells; assay: Cisplatin sensitivity colony survival assay; format: cell-based, human; conditions: Mettl8 knockout versus control HCT116 cells; cisplatin 2 h, grown a week
Procedure: as §1
Cells were grown in fresh media for a week and the survival cell colonies were fixed and stained with crystal violet. Colonies with more than 50 cells were counted. The result was presented in ±SEM of percentage of colonies survived compared to untreated samples. […] This effect is dependent on p53 for cisplatin induced apoptosis (data not shown). This difference in sensitivity could be exploited in clinical context that patients with functional p53 and low Mettl8 tumor may benefit more from cisplatin treatment instead of radiotherapy.

Mettl8 [3] = assay: Mettl8 expression after treatment with interstrand crosslinking agents; format: cell-based
ATM = assay: Camptothecin treatment of HCT116 WT and METTL8 KO cells, ATM activation immunoblot; format: cell-based, human; conditions: 10 μM camptothecin 0-24 hr; Mettl8 knockout HCT116 cells compared with WT
Procedure: HCT116 WT and METTL8 KO cells were treated with 10 μM camptothecin for 0 h, 1 hr, 3 hr, 6 hr, 16 hr, and 24 hr. Equal amount of lysates were resolved on SDS-PAGE followed by immunoblotting with antibodies.

Mettl8 [4] = assay: shRNA knockdown of Mettl8 in HCT116 (lentivirus, Western blotting); format: cell-based, human; conditions: HCT116, lentiviral pLKO1 shRNA, 72 h
Procedure: To study the functions of Mettl8, hairpin shRNA was ordered and cloned into pLKO1 vector by AgeI/EcoRI, with the following sequence:
The hairpin sequences in the shRNA were underlined. […]. Supernatant was harvested after 48 hours and cleared by filtration. Then viral solution was added to fresh HCT116 culture in the presence of 6 ug/ml polybrene. After 72 h, the cells were lysed and equal amount of lysate was resolved on SDS-PAGE for knock down efficiency by Western blotting with anti-Mettl8 and actin antibodies as indicated in FIG. 2.

Mettl8 [5] = assay: Western blot of Mettl8 protein in E14 cells treated with STAT3 inhibitors; format: cell-based, mouse
Procedure: Total RNAs were extracted from E14 cells treated with STA-21 and STATTIC for 6 hr and analyzed by real-time PCR. […] The data are shown as the mean±SD from three independent experiments (*p<0.05). The cell lysates from treated E14 cells were also analyzed by Western blot. Consistent with the mRNA expression, the protein levels of Mettl8 were reduced with presence of STA-21 and STATTIC (FIG. 5J). The value of each band was calculated from three independent replicates and indicates the relative expression level after normalizing to the loading control Actin.

Mettl8 mRNA = assay: Real-time PCR of Mettl8 mRNA in ESCs / E14 cells treated with STAT3 inhibitors; format: cell-based, mouse; conditions: for Mettl8 mRNA expression (real-time PCR): E14 cells treated for 6 hr; for Mettl8 mRNA (real-time PCR): ESCs treated with 10 μM STAT3 inhibitor for 1 hr
Procedure: To investigated how STAT3 crosstalk with other potential pathways in pluripotency of embryonic stem cells (“ESCs”), inventors tried to identify factors that were regulated by STAT3 using mouse ESCs treated with STAT3 inhibitors STA-21 and STATTIC. Real-time PCR was performed to screen for changes when embryonic stem cells (ESCs) were treated with STAT3 inhibitor 10 μM STA-21 and STATTIC for 1 hr. RNAs were extracted with TRIZOL followed by reverse transcription. Total RNAs were extracted from E14 cells treated with STA-21 and STATTIC for 6 hr and analyzed by real-time PCR. […] The data are shown as the mean±SD from three independent experiments (*p<0.05). The cell lysates from treated E14 cells were also analyzed by Western blot. Consistent with the mRNA expression, the protein levels of Mettl8 were reduced with presence of STA-21 and STATTIC (FIG. 5J). The value of each band was calculated from three independent replicates and indicates the relative expression level after normalizing to the loading control Actin.

Mettl8 [6] = assay: STAT3 shRNA knockdown in E14 cells, Mettl8 mRNA and protein; format: cell-based, mouse; conditions: Luc shRNA as control
Procedure: Luc shRNA was used as control. Data in FIG. 5K are shown as the mean±SD from three independent experiments. The value of each band in FIG. 5L was calculated from three independent replicates and indicates the relative expression level after normalizing to the loading control Actin.

HCT116 cells [7] = assay: Cell growth (colony formation) assay, crystal violet; format: cell-based, human; conditions: HCT116, 500 cells/well, 7 days, versus scramble shRNA / empty vector
Procedure: (§2) In the soft agar colony assay, HCT116 cells with Mettl8 wt or ΔSAM were seeded at 500 cells/well in 6-well plate in triplicate and after 2-week colonies grown up in soft agar was shown. Colonies with more than 50 cells were counted with Quantity One software. […] 7 days later, cells were fixed and stained with crystal violet. The images of plates were collected with ImageLab software.

HCT116 stable cells = assay: Cell cycle profiling by FACS of HCT116 stable cells; format: cell-based, human; conditions: un-stressed conditions, versus empty vector and wild-type Mettl8
From the text: (§3) As ATM is essential for cell checkpoint, the cell cycle profiles were studies in this experiment. The plasmid containing the cDNA of human Mettle8 SAM deletion mutant was constructed by PCR based mutagenesis method to delete the specific nucleotide sequence in the SAM domain as shown in FIG. 7A. After the plasmid was transfected into HCT116 wildtype cells, stable colonies of cell containing the plasmid were selected, which were called Mettl8 ΔSAM cells. The Mettle8 ΔSAM variant cDNA was also transduced into human skin fibroblast as shown in FIG. 7N by a lentivirus based method. These HCT116 stable cells were examined in cell cycle analysis (FIG. 9A) and soft agar colony assay (FIG. 9B).
In addition, HCT116 stable cells with Mettl8 variant were fixed with 70% ethanol and stained with pI followed by cell cycle profiling on FACS and data were analysed with FlowJo software.

[8] = 3H-SAM binding assay with GST-Mettl8 proteins on beads, scintillation counting; set-up: species or system human; conditions: recombinant purified GST-Mettl8 wt and SAM mutant
Procedure: To test the ability of Mettl8 to bind SAM, equal amounts of GST, GST-Mettl8 WT and mutant proteins were conjugated on Glutathione sepharose 4B beads and incubated with ^3H-SAM for 30 min at 30° C. with empty beads control. After extensive washing, the beads were transferred to scintillation tubes and measured on liquid scintillation counter in triplicate.
as §3

HCT116 cells [9] = assay: Soft agar colony assay; format: cell-based, human; conditions: HCT116 stable cells, 500 cells/well, 2 weeks, compared to empty vector
Procedure: as §2

With `O=c1cc(-c2cccc3c2Sc2ccccc2S3)oc(N2CCOCC2)c1` [Ku55933] the “prevention of Mettl8 phosphorylation by IR” value (pS/TQ motif on Mettl8; 1 μM Ku55933 pretreatment 1 hour, 10 Gy, harvested 1 h later, doses 0.1, 1, 5 μM tested) was “sufficient to prevent the phosphorylation of Mettl8”, the “irradiation-induced phosphorylation at the pS/TQ motif of Flag-Mettl8” value (pS/TQ motif on Mettl8; HCT116 Flag-Mettl8 cells pretreated 1 hour with inhibitor (AZD7762 0.5 μM), then 10 Gy) was “reduced the phosphorylation” and the “hyper activation of ATM, KAP1, Chk2, p53 by irradiation” value (ATM, KAP1, Chk2, p53) was “either reverted or eliminated the hyper activation”.

For `N.N.[Cl][Pt][Cl]` [cisplatin], the “sensitivity to cisplatin treatment (MTS assay)” value [1] was “more sensitive”, the Mettl8 protein level (Mettl8 protein) was “dramatically reduced” and the “sensitivity to cisplatin treatment (colony survival assay)” value [2] was “more sensitive”. For the same molecule, the “Mettl8 expression at transcriptional level” value (Mettl8 [3]) was “downregulated at transcriptional level”.

For `CC[C@@]1(O)C(=O)OCc2c1cc1n(c2=O)Cc2cc3ccccc3nc2-1` [camptothecin], the ATM activation (ATM) was “caused hyperactivation of ATM”.

With “shRNA: hairpin shRNA against Mettl8 cloned into pLKO1, SEQ ID NO: 15; hairpin matches M8 shRNA1 GTTGAGGGAATTTCCTGAAAT (CCGGGTTGAGGGAATTTCCTGAAATCTCGAGATTTCAGGAAATTCCCTCAACTTTTTTG)” the “Mettl8 expression (knock down efficiency, Western blotting)” value (Mettl8 [4]) was “can knock down the expression of Mettl8”.

For `CC1CC(=O)c2c(ccc3c2C(=O)c2cccc(O)c2C3=O)C1` (stereo not shown) [STA-21, 8-hydroxy-3-methyl-3,4-dihydrotetraphene-1,7,12(2H)-trione], the “Mettl8 protein levels (Western blot)” value (Mettl8 [5]) was “reduced”, the “Mettl8 mRNA expression (real-time PCR)” value (Mettl8 mRNA) was “inhibited” and the “Mettl8 mRNA (real-time PCR)” value (Mettl8 mRNA) was “downregulated”.

With “STAT3 shRNA: shRNA sequence TTTGTGCTTAGGATGGCCC, SEQ ID No: 7; full sequence SEQ ID No: 8 (GATCCCCGGGCCATCCTAAGCACAAATTCAAGAGATTTGTGCTTAGGATGGCCCTTTTTA)” the “Mettl8 mRNA” value (Mettl8 [6]) was “downregulation” and the Mettl8 protein (Mettl8 [6]) was “downregulation”.

In the case of `O=[N+]([O-])c1ccc2c(c1)S(=O)(=O)C=C2` [STATTIC, 6-Nitrobenzo[b]thiophene 1,1-dioxide], the “Mettl8 protein levels (Western blot)” value (Mettl8 [5]) is reported as “reduced”, the “Mettl8 mRNA expression (real-time PCR)” value (Mettl8 mRNA) is reported as “inhibited” and the “Mettl8 mRNA (real-time PCR)” value (Mettl8 mRNA) is reported as “downregulated”.

In the case of “Mettl8 shRNA2: shRNA sequence GCGAGAGAATCATCATGGGAT, SEQ ID No: 3”, the colony formation (HCT116 cells [7]) is reported as “significantly reduced the colony formation”.

For `CO[C@@]12[C@H](COC(N)=O)C3=C(C(=O)C(C)=C(N)C3=O)N1C[C@@H]1N[C@@H]12` [mitomycin C], the “Mettl8 expression at transcriptional level” value (Mettl8 [3]) was “downregulated at transcriptional level”.

B1: Mettl8 ASAM variant: human Mettl8 variant with SAM domain deletion (aa 200-208), SEQ ID No. 18; competes with endogenous Mettl8 (protein)
chain: MNMIWRNSISCLRLGKVPHRYQSGYHPVAPLGSRILTDPAKVFEHNMWDHMQWSKEEEAAARKKVKENSAVRVLLEEQVKYEREASKYWDTFYKIHKNKFFKDRNWLLREFPEILPVDQKPEEKARESSWDHVKTSATNRFSRMHCPTVPDEKNHYEKSSGSSEGQSKTESDFSNLDSEKHKKGPMETGLFPGSNATFRNSVFPILNTLENSPESFLYCCDFASGAVELVKSHSSYRATQCFAFVHDVCDDGLPYPFPDGILDVILLVFVLSSIHPDRMQGVVNRLSKLLKPGGMLLFRDYGRYDKTQLRFKKGHCLSENFYVRGDGTRAYFFTKGEVHSMFCKASLDEKQNLVDRRLQVNRKKQVKMHRVWIQGKFQKPLHQTQNSSNMVSTLLSQD
For B1, the cell cycle profile (HCT116 stable cells) was “more accumulation of G2/M populations”, the “binding of SAM” value [8] was “lost the ability to bind the SAM donor molecule” and the “soft agar colony numbers” value (HCT116 cells [9]) was “much reduced colony numbers”.
